Experimental data from US5902794A (priority 1997, dated 1999).

How the values were obtained:
[1] = test system: R^II cAMP receptor protein (MDA-MB-231); test: photoaffinity labelling of R^II cAMP receptor protein, MDA-MB-231; type: cell-based, human; settings: 10 microM, 3 days; relative to control R^I
Description: (§1) M is marker proteins of known molecular weight.
(§2) The incubations were carried out at 23° C. for 60 minutes in 96-well immunoplates. The reaction mixtures were then irradiated for 30 seconds at 254 nm, placing a Mineralite UVS-11 hand lamp directly onto the plate. The samples were mixed with 25 microliters of 3× sample buffer (3% SDS, 15% beta-mercaptoethanol, 30 mM Tris, 30% glycerol, 1% bromophenol blue saturated solution), boiled for 3 minutes, and centrifuged at 700×g for five minutes. The samples containing 50-100 micrograms of protein were subjected to 0.05% SDS-12% PAGE. The gels were fixed, dried, and exposed to X-ray films overnight. The protein concentrations were determined by the method of Lowry et al., (J. Biol. Chem. 193: 265-275, 1951) with bovine serum albumin as standard.
(§3) The levels of the receptor proteins are expressed relative to the R^I level in the untreated control cells of MDA-MB-231 and LS-174T, which are each set equal to 1.0 O.D.; the scale was expanded to differentiate the lower intensity bands.

DMBA-1 = test: growth of transplantable DMBA-1 rat mammary carcinoma; type: in vivo; settings: pellet with 10 mg cAMP analogue, day 7
Description: DMBA-1, a variant of primary hormonedependent DMBA tumor,
hormoneindependent and transplantable.
(§4) 8Cl-cAMP and DBcAMP were given as a 20mg pellet consisting of 10 mg of […]

[2] = test system: mammary tumor inductions by DMBA; test: DMBA mammary tumor induction (FIG. 8); type: in vivo; settings: 10 mg pellet one day before DMBA
murine leukemia L1210 = test: life span of L1210-inoculated BDF1 mice; type: in vivo, mouse
Description: | Infusions by Harvard pumps.

R^II = settings: cited from earlier work
[3] = test system: breast and colon cancer cell lines; test: cell cycle progression of breast and colon cancer cell lines; type: cell-based, human; settings: vs untreated control cells
Description: (§5) DNA histograms were generated on FACS II by using the DNA intercalating dye propidium iodide as described by Braylan et al. (Cytometry 2: 337-343, 1982). The percentage of cells in each cycle phase was calculated by using a PDP-11/34 computer and software as described by Neckers et al. (Mol. Cell. Biol. 6: 4244-4250, 1986).
A determination was made whether the reduced cell proliferation observed in the cancer cell lines after treatment with the compounds of the present invention is due to a specific block in one phase of the cell cycle.

[4] = test system: R^I and R^II cAMP receptor proteins in breast (MDA-MB-231) and colon (LS-174T) cancer cells; test: R^I and R^II cAMP receptor protein levels in breast and colon cancer lines (FIG. 6); type: cell-based, human
Description: as §1, §2

[5] = test system: LS-174T colon cancer cells; test: cell cycle analysis, LS-174T; type: cell-based, human; settings: 8-Cl 10 μM, 3 days, two separate experiments
Description: as §5
Breast (MCF-7, MDA-MB-231) and colon (LS-174T) cancer cells in
log phase (untreated control) and 3 days after treatment with
(5 μM) were analyzed for DNA content by flow cytometric analysis

[6] = test system: R^I cAMP receptor protein (MDA-MB-231); test: photoaffinity labelling of R^I cAMP receptor protein, MDA-MB-231; type: cell-based, human; settings: 10 microM, 3 days; control 1.0
Description: as §1, §2, §3

R^I receptor = settings: cited from earlier work
NMU-2 = test: growth of metastatic NMU-2 rat mammary carcinoma; type: in vivo; settings: pellet with 10 mg cAMP analogue, day 7
Description: NMU2, a variant of primary hormoneresponsive NMU tumor,
hormoneindependent, transplantable, and metastatic.
as §4

[7] = test system: transplantable DMBA-1 and MNA-2 rat mammary carcinomas; test: short-term assays with transplantable rat mammary carcinomas; type: in vivo; settings: 10-mg pellet, within one week
HL-60 = test: growth inhibition of HL-60; type: cell-based, human
[8] = test system: HT-29 colon cancer cell line
[9] = test system: R^I cAMP receptor protein (LS-174T); test: photoaffinity labelling of R^I cAMP receptor protein, LS-174T; type: cell-based, human; settings: 10 microM, 3 days; control 1.0
Description: as §1, §2, §3

HL-60 cells = test: differentiation markers (surface antigens) in HL-60 cells; type: cell-based, human; settings: three days
MDA-MB-231 = test: growth of MDA-MB-231 cells; type: cell-based; settings: Homo sapiens, MDA-MB-231, 72 h; 10 microM, 3 days
Description: as §1
(§6) All breast cancer cell lines were grown in IMEM supplemented with 10% fetal bovine serum, 20 mM HEPES, penicillin-streptomycin, and extra glutamine. Colon carcinoma cell lines were grown in EMEM supplemented with 10% FBS, EMEM, NEAA, HEPES 20 mM, extra glutamine, and penicillin-streptomycin. The cells were grown at 37° C. in humidified incubators in an atmosphere of 5% CO2.
(§7) For cell growth experiments, 2-3×10^5 cells/60 mm dish were seeded, and 24 hours later (Day 0), the medium was removed, and fresh medium and the additives were added then and every 48 hours thereafter The compounds of the present invention were added using 100× concentrated stock solutions. At desired times, cell counts in duplicate were performed on a Coulter counter after harvesting the cells with gentle trypsinization.

[10] = test system: LS-174T colon cancer line; test: growth inhibition and release from inhibition, LS-174T (FIG. 3); type: cell-based, human
Description: 1×10^5 cells/60 mm dish were seeded, and 24 hours later (Day 0), the medium was removed and fresh medium and additives were added then and every 48 hours thereafter. […] The triplicate cell count for each experimental point never varied by more than 10%.
as §6

LS-174T = test: growth of LS-174T cells; type: cell-based; settings: Homo sapiens, LS174T, 72 h; 10 microM, 3 days
Description: as §1, §6, §7

[11] = test system: MCF-7 ras breast cancer cell line; test: synergistic growth inhibition by C-6 and C-8 analogue combination; type: cell-based; settings: Homo sapiens, MCF7; alone, 1.0 μM; read-out: percentage growth inhibition of analogue added alone
Description: as §6, §7
Synergism quotient was defined as the net growth inhibitory effect of the analogue combination divided by the sum of the net analogue effects on growth inhibition A quotient of >1 indicates a synergistic effect, while a quotient of <1 indicates an antagonistic effect.
Synergism of growth inhibition was determined by treatment of
cells with C-6 analogues and C-8 analogues alone and in combination at
Day 0 and Day 2 and counting the cell number at Day 4

Nc1ncnc2c1nc(Cl)n2[C@@H]1O[C@@H]2COP(=O)(O)O[C@H]2[C@H]1O [8-Cl-cAMP]
R^II relative level [1]: 0.15 ± 0.01 | Change in mean tumor volume (DMBA-1): 1.60 cm^3 | reduction in the total number of tumors produced [2]: 70% | antitumor effect (murine leukemia L1210; 104 mg/kg bolus injection, seven consecutive days): no antitumor effect | tolerability in L1210-bearing mice (murine leukemia L1210; 104 mg/kg bolus, seven consecutive days): tolerated | increase in mean life span (murine leukemia L1210; 104 mg/kg/day constant infusion, five days): 37% | site selectivity of binding, R^II (R^II): selectively binds to site 1 | fractions of cells in G1, S and G2/M phases, in words [3]: not appreciably different | increase in the ratio of R^II to R^I ([4]; densitometry): two- to three-fold increase | 48,000 R^I receptor protein, in words ([4]; three days, 10 microM): concomitant decrease | 52,000 MW (R^II) receptor protein, in words ([4]; three days, 10 microM): increased appreciably | % Cell population in G1 [5]: 63,53% | % Cell population in G2 M [5]: 22,25% | % Cell population in S [5]: 15,22% | activity at 10 µM ([5]; Homo sapiens, LS174T, 72 h, read-out: % Growth): 30.3% | R^I relative level [6]: 0.25 ± 0.03 | site selectivity of binding, R^I (R^I receptor): binds to site 2 | Change in mean tumor volume (NMU-2): 1.10 cm^3 | growth inhibition [7]: 40-50% | growth inhibition (footnote) (HL-60; 20 μmol/L): Seventy percent growth inhibition | IC50 (HL-60; Homo sapiens, HL-60): 100 µM | 8-Cl-adenosine in cell extracts [8]: no 8-Cl-adenosine was present | 8-Cl-adenosine in cell extracts or medium [8]: 8-Cl-adenosine was not detected | 8-Cl-adenosine in medium [8]: no 8-Cl-adenosine was present | cell penetration of intact compound [8]: penetrated the cell | R^I relative level [9]: 0.20 ± 0.02 | markers of immature progenitor cells (My7, My9), in words (HL-60 cells): decrease in markers related to the immature progenitor cells | monocyte-specific surface antigens (MO2, OKM5), in words (HL-60 cells): marked increase in the expression | activity at 10 µM (MDA-MB-231): 45% | mechanism of growth inhibition / cell viability [10]: decrease in the rate of replication without affecting cell viability | cell growth during treatment ([10]; 8-Cl-cAMP 10 microM or 8-Cl-adenosine 5 microM): marked reduction in cell growth | growth after cessation of treatment ([10]; after removal of additives): resumed growth almost immediately | activity at 10 µM (LS-174T): 30% | inhibition at 1 µM [11]: 20%
